Read-outs that look alike come from different tables or passages of the source.
Key:
[1] = molecular target: T. brucei lysate proteins (Trypanosoma brucei brucei, UniProt P13377); assay type: binding
[2] = molecular target: T. brucei lysate proteins (Trypanosoma brucei brucei, UniProt P12861); assay type: binding
[3] = molecular target: T. brucei lysate proteins (Trypanosoma brucei brucei, UniProt Q04933); assay type: binding
[4] = molecular target: T. brucei lysate proteins (Trypanosoma brucei brucei, UniProt P07752); assay type: binding
[5] = molecular target: T1, HeLa cell extract proteins (Homo sapiens, UniProt Q9BTT0); assay type: binding
T1 construct: endogenous in cells; host or cells: HeLa cell extract

[6] = molecular target: T2, HeLa cell extract proteins (Homo sapiens, UniProt O00462); assay type: binding
T2 construct: endogenous in cells; host or cells: HeLa cell extract
T2 sequence (O00462 18-879): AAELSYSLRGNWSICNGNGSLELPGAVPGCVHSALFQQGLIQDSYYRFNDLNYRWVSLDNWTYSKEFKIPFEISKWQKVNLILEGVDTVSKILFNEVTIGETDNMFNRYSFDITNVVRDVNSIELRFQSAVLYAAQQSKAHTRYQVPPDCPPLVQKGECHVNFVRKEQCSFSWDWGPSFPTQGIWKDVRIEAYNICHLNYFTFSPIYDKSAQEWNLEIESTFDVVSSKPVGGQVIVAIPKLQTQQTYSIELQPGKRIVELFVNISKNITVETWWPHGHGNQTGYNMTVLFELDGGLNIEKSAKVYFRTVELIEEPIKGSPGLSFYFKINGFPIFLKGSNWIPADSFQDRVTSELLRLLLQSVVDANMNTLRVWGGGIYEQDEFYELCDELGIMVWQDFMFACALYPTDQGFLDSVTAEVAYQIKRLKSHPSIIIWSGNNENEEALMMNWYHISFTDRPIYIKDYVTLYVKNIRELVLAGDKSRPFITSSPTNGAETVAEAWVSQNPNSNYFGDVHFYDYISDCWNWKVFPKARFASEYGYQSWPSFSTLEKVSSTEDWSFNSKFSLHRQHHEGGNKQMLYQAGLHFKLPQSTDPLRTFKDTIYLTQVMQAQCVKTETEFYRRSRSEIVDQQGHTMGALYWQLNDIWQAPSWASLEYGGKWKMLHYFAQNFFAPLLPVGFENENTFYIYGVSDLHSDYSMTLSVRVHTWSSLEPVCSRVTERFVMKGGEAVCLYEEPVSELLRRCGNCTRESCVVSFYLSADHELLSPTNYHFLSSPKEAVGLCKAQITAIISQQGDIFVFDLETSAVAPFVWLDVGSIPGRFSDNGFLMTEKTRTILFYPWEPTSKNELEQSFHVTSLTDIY

[7] = molecular target: T3, HeLa cell extract proteins (Homo sapiens, UniProt O75533); assay type: binding
T3 construct: endogenous in cells; host or cells: HeLa cell extract

[8] = molecular target: T4, HeLa cell extract proteins (Homo sapiens, UniProt Q92499); assay type: binding
T4 construct: endogenous in cells; host or cells: HeLa cell extract
T4 sequence (Q92499 1-740): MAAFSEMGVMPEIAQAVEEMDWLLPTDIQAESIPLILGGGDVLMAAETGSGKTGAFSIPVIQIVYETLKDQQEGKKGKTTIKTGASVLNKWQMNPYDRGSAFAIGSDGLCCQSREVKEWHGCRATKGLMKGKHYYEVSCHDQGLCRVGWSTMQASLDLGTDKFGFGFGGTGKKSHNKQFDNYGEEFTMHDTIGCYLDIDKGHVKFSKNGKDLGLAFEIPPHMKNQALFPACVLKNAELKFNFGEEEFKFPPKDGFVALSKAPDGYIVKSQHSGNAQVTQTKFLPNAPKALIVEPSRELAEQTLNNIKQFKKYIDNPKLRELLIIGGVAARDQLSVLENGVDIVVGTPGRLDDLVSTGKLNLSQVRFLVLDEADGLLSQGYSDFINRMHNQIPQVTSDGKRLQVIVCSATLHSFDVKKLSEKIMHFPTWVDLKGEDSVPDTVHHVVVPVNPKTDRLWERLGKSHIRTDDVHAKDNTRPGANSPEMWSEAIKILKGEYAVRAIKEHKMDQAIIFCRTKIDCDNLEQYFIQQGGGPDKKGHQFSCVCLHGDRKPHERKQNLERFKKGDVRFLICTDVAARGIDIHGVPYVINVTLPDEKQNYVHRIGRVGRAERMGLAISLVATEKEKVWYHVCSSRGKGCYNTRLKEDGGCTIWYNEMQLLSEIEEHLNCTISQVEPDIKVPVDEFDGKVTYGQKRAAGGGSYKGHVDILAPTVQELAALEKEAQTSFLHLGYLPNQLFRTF

[9] = molecular target: T5, HeLa cell extract proteins (Homo sapiens, UniProt P61088); assay type: binding
T5 construct: endogenous in cells; host or cells: HeLa cell extract
T5 sequence (P61088 1-152): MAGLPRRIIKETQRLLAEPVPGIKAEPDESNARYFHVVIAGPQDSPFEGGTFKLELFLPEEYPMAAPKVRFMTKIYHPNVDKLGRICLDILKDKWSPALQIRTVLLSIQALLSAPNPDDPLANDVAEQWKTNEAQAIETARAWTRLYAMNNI

[10] = system: TB927.8.6460; assay: Multitargeted bead mixture competition; assay type: binding, T. brucei; settings: for fold change: CONSERVED, vehicle control = 1
[11] = molecular target: T. brucei lysate proteins (Trypanosoma brucei brucei, UniProt P38973); assay type: binding; settings: protein TB427.10.1070 CELL DIVISION PROTEIN KINASE 2 HOMOLOG 1 (CRK1)
[12] = system: TB11.03.0290; assay: Multitargeted bead mixture competition; assay type: binding, T. brucei; settings: for fold change - vehicle control: protein TB11.03.0290 PROTEIN KINASE, PUTATIVE
[13] = molecular target: DHFR-TS (Leishmania major, UniProt P07382); assay: biochemical; settings: competing free ligand 100 μM; bead = immobilized compound of the row; L. major lysate; read-out: % Inhibition of protein binding to bead, DHFR-TS, L. major
[14] = molecular target: T6, HeLa cell extract proteins (Homo sapiens, UniProt Q9H7Z7); assay type: binding; settings: captured protein PTGES2; HeLa
T6 construct: endogenous in cells; host or cells: HeLa cell extract

[15] = molecular target: T7, HeLa cell extract proteins (Homo sapiens, UniProt Q8WUX1); assay type: binding; settings: HeLa; protein SLC38A5
T7 construct: endogenous in cells; host or cells: HeLa cell extract

[16] = molecular target: T8, HeLa cell extract proteins (Homo sapiens, UniProt P39687); assay type: binding; settings: protein ANP32A; HeLa
T8 construct: endogenous in cells; host or cells: HeLa cell extract

[17] = protein TB427.01.3830 GLUCOSE-6-PHOSPHATE ISOMERASE, GLYCOSOMAL, vehicle control = 1
[18] = protein TB427.10.10980 HEAT SHOCK PROTEIN 83, vehicle control = 1
[19] = protein TB427TMP.01.8470 DIHYDROLIPOYL DEHYDROGENASE, vehicle control = 1
[20] = protein TB927.10.5620 FRUCTOSE-BI[…], GLYCOSOMAL, vehicle control = 1
[21] = HeLa, protein MANBA (BETA-MANNOSIDASE PRECURSOR)

Chain of T. brucei lysate proteins (Trypanosoma brucei brucei, UniProt P12861) (P12861 whole entry): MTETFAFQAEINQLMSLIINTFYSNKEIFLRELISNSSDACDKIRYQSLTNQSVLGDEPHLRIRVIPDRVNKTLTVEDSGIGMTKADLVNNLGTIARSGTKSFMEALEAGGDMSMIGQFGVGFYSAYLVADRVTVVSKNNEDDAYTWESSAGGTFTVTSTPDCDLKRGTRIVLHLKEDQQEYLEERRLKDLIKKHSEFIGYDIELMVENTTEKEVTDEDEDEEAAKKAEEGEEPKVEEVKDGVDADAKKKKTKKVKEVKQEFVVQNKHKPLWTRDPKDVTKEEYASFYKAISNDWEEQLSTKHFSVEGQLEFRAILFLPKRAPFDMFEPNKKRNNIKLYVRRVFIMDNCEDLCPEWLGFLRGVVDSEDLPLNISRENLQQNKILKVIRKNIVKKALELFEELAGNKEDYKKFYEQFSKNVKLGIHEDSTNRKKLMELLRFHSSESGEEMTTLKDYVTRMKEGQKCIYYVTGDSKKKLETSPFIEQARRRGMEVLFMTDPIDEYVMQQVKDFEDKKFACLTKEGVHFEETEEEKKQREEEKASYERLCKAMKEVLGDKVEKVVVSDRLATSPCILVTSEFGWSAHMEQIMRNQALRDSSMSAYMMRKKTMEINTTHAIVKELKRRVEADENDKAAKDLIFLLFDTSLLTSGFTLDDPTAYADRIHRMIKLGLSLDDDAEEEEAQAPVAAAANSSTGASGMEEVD
Chain of T. brucei lysate proteins (Trypanosoma brucei brucei, UniProt Q04933) (Q04933 whole entry): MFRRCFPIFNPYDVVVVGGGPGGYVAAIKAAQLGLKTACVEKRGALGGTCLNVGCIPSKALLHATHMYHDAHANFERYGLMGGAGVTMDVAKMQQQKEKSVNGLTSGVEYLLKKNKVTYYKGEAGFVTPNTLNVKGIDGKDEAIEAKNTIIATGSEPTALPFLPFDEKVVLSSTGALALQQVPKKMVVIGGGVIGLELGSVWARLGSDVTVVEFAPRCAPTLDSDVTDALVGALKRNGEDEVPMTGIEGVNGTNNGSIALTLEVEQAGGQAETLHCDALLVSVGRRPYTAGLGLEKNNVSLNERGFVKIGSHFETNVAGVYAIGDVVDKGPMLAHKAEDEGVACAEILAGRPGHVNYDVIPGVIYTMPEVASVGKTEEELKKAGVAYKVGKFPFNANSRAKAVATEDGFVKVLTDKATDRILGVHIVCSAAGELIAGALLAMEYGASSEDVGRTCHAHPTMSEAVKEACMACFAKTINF
T8 sequence (P39687 whole entry): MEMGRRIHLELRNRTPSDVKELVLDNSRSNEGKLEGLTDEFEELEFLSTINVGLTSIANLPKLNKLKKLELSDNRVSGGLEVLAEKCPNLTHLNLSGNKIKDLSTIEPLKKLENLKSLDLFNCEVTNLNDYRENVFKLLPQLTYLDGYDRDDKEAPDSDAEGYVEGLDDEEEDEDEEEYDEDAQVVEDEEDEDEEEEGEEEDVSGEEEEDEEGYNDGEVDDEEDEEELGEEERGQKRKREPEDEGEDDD
Chain of DHFR-TS (P07382 whole entry): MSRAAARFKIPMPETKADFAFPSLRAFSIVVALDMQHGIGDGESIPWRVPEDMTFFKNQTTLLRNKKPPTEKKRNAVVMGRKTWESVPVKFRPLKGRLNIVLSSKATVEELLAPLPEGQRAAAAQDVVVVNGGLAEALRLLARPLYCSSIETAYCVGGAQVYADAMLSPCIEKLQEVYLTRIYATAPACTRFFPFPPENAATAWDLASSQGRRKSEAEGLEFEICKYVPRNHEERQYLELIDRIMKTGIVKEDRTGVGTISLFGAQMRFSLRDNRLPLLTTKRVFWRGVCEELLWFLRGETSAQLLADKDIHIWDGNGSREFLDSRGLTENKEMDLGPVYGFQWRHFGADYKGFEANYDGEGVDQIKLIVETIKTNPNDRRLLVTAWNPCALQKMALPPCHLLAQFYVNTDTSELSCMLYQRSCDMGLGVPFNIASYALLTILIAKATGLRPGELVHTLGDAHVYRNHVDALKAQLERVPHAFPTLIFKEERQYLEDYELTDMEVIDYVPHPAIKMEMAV
T7 sequence (Q8WUX1 whole entry): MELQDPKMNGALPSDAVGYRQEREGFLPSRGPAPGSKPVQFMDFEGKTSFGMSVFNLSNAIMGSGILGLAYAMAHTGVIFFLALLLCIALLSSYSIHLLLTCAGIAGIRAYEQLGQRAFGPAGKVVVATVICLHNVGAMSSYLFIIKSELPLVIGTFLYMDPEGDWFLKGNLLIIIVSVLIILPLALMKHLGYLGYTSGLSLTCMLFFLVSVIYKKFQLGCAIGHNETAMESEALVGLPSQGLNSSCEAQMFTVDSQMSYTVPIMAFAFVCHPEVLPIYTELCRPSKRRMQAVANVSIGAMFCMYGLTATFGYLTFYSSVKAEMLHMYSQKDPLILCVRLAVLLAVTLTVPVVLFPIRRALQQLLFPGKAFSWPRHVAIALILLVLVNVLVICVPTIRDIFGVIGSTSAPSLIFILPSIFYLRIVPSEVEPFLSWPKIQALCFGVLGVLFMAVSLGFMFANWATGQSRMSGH
Chain of T. brucei lysate proteins (Trypanosoma brucei brucei, UniProt P07752) (P07752 whole entry): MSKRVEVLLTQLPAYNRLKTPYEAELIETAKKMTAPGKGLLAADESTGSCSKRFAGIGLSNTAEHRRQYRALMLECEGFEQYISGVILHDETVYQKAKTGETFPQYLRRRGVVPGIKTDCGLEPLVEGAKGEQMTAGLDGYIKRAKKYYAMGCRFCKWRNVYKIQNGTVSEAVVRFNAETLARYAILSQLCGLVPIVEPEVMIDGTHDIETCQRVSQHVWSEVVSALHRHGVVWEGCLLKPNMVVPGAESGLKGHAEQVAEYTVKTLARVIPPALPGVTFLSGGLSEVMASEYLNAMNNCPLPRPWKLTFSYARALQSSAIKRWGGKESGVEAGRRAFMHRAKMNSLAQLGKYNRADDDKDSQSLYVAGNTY
Chain of T. brucei lysate proteins (Trypanosoma brucei brucei, UniProt P38973) (P38973 whole entry): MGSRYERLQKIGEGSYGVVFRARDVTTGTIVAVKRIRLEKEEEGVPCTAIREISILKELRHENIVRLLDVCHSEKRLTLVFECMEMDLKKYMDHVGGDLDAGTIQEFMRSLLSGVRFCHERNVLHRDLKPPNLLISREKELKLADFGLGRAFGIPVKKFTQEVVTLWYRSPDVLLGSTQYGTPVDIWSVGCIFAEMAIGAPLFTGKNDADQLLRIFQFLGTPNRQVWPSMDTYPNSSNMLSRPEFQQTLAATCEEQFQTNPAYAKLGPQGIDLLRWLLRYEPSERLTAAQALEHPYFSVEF
T1 sequence (Q9BTT0 whole entry): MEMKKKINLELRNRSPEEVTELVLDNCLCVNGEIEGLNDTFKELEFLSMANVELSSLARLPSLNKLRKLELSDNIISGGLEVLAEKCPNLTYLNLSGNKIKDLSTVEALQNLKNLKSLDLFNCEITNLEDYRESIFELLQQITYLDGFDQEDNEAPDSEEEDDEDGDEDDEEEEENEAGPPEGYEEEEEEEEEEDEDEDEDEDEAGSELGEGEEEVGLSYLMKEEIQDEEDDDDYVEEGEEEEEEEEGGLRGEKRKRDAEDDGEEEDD
Chain of T. brucei lysate proteins (Trypanosoma brucei brucei, UniProt P13377) (P13377 whole entry): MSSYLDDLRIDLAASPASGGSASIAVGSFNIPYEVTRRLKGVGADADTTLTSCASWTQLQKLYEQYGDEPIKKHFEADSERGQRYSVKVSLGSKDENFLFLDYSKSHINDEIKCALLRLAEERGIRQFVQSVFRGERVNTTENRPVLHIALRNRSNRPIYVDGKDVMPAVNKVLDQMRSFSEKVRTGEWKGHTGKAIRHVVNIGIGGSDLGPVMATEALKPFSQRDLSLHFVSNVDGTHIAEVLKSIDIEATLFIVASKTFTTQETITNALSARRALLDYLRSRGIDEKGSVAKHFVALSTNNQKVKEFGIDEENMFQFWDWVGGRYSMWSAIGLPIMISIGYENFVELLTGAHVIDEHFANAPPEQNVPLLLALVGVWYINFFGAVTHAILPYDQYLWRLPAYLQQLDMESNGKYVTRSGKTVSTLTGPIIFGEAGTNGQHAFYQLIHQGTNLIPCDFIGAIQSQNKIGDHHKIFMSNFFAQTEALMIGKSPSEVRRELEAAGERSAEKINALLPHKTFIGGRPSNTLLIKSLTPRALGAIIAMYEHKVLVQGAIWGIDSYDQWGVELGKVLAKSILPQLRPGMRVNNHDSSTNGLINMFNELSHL
T6 sequence (Q9H7Z7 whole entry): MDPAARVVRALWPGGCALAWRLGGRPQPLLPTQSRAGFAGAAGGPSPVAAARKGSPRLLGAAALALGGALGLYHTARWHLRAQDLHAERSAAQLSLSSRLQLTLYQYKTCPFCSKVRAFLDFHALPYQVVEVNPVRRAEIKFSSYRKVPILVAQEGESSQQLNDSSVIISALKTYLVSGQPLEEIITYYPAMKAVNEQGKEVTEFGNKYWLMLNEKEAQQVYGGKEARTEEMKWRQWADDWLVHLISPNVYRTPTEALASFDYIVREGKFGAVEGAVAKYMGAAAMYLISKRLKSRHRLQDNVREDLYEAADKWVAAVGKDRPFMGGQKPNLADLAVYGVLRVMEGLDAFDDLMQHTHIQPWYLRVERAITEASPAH

With `Nc1nc2c(c(=O)[nH]1)N(C=O)C(CNc1ccc(C(=O)N[C@@H](CCC(=O)O)C(=O)O)cc1)CN2` (stereo partly drawn) [LEU, leucovorin] the “fold change vs vehicle control” value [1, 17] was 1.22, the “fold change vs vehicle control” value [2, 18] was 1.64 and the “fold change vs vehicle control” value [3, 19] was 0.93. For the same compound, the “fold change vs vehicle control” value [4, 20] was 1.22, the “fold changes relative to vehicle control” value ([5]; HeLa, protein ANP32E) was 0.89 and the “fold changes relative to vehicle control” value ([6]; HeLa, protein MANBA (BETA-M[…])) was 1.01. For the same compound, the “fold changes relative to vehicle control” value ([7]; HeLa, protein SF3B1) was 1.02, the “fold changes relative to vehicle control” value ([8]; HeLa, captured protein DDX1) was 1.15 and the “fold changes relative to vehicle control” value ([9]; HeLa, protein UBE2N) was 1.06. It also gave a fold change ([10]; protein TB927.8.6460 HYPOTHETICAL PROTEIN) of 0.84.
For `NCCCNc1ccc(C(=O)NC(CCC(=O)O)C(=O)O)cc1` (stereo not drawn) [compound 7], the “fold change vs vehicle control” value [1, 17] was 0.88, the “fold change vs vehicle control” value [2, 18] was 1 and the “fold change vs vehicle control” value [3, 19] was 1.05. For the same compound, the “fold change vs vehicle control” value [4, 20] was 1.08, the “fold changes relative to vehicle control” value ([5]; HeLa, protein ANP32E) was 0.72 and the “fold changes relative to vehicle control” value [6, 21] was 0.91. For the same compound, the “fold changes relative to vehicle control” value ([7]; HeLa, protein SF3B1) was 1.07, the “fold changes relative to vehicle control” value ([8]; HeLa, captured protein DDX1) was 1.11 and the “fold changes relative to vehicle control” value ([9]; HeLa, protein UBE2N) was 1.19. For the same compound, the fold change ([10]; protein TB927.8.6460 HY[…]) was 1.04.
For `CCCCCCOc1cccc(Cc2cnc(N)nc2N)c1` [compound 2], the “fold change - vehicle control” value [11] was 0.86, the “fold change - vehicle control” value [12] was 0.99 and the inhibition at 100 µM [13] was less than 50%. For the same compound, the “fold changes relative to vehicle control” value [14] was 1.18, the “fold changes relative to vehicle control” value [15] was 1.14 and the “fold changes relative to vehicle control” value [16] was 2.37.
With `CCCCCCOc1ccc(Cc2cnc(N)nc2N)cc1` [compound 1] the “fold change - vehicle control” value [11] was 0.76, the “fold change - vehicle control” value [12] was 0.91 and the inhibition at 100 µM [13] was less than 50%. The “fold changes relative to vehicle control” value [14] was 0.87, the “fold changes relative to vehicle control” value [15] was 0.91 and the “fold changes relative to vehicle control” value [16] was 1.44.
With `Nc1nc2cccc(-c3ccccc3)c2n1Cc1ccc(Cl)c(Cl)c1` [compound 3] the “fold change - vehicle control” value [11] was 0.91, the “percentage of competition from bead binding” value ([12]; multitargeted bead mixture, free ligand 100 μM, T. brucei lysate, TB11.03.0290) was 10% and the “fold change - vehicle control” value [12] was 1.06. The inhibition at 100 µM [13] was less than 50%, the “fold changes relative to vehicle control” value [14] was 0.84 and the “fold changes relative to vehicle control” value [15] was 0.95. For the same compound, the “fold changes relative to vehicle control” value [16] was 0.78 and the “percentage of competition from bead binding” value ([10]; multitargeted bead mixture, free ligand 100 μM, T. brucei lysate, TB927.8.6460) was 15%.
For `NCCOCCOCC(=O)Nc1nc2ncc(CNc3ccc(C(=O)NC(CCC(=O)O)C(=O)O)cc3)nc2c(=O)[nH]1` (stereo not drawn) [compound 6], the “fold change vs vehicle control” value [1, 17] was 0.98, the “fold change vs vehicle control” value [2, 18] was 1.41 and the “fold change vs vehicle control” value [3, 19] was 0.97. The “fold change vs vehicle control” value [4, 20] was 1.2, the “fold changes relative to vehicle control” value ([5]; HeLa, protein ANP32E) was 0.91 and the “fold changes relative to vehicle control” value [6, 21] was 0.71. The “fold changes relative to vehicle control” value ([7]; HeLa, protein SF3B1) was 1.16, the “fold changes relative to vehicle control” value ([8]; HeLa, captured protein DDX1) was 1.12 and the “fold changes relative to vehicle control” value ([9]; HeLa, protein UBE2N) was 1.78. It also gave a fold change ([10]; protein TB927.8.6460 HY[…]) of 1.03.
In the case of `Nc1nc2[nH]cc(CCc3ccc(C(=O)N[C@@H](CCC(=O)O)C(=O)O)cc3)c2c(=O)[nH]1` [PTX, pemetrexed], the “fold change vs vehicle control” value [1] is reported as 0.85, the “fold change vs vehicle control” value [2] is reported as 0.76 and the “fold change vs vehicle control” value [3] is reported as 0.97. The “fold change vs vehicle control” value [4] was 1.11, the “fold changes relative to vehicle control” value [5] was 0.76 and the “fold changes relative to vehicle control” value [6] was 0.71. The “fold changes relative to vehicle control” value [7] was 1.1, the “fold changes relative to vehicle control” value [8] was 1.14 and the “fold changes relative to vehicle control” value [9] was 1.83. The fold change ([10]; protein TB927.8.6460 HY[…]) was 0.66.
